Patent publication US4473587A, “Prostaglandin E1 analogues” (Ono Pharmaceutical Co., Ltd., priority 1982, dated 1984)
Read-outs that look alike come from different tables or passages of the source.

Legend:
[1] = system: adenosine diphosphate-induced blood platelet aggregation; assay: inhibition of adenosine diphosphate-induced blood platelet aggregation in platelet rich plasma of rats; type: cell-based, rat; conditions: for Platelet aggregation inhibition (E1 = 1): relative to PGE1 taken as 1.00, ADP-induced, platelet rich plasma of rats; for platelet aggregation inhibiting side-effect: in words, in comparison with known compounds D, E, F and G
From the text: (§1) In the Table, the values of side-effects are indicated relative to the activity of PGE1, taken as 1.00.
^(3) Inhibition of adenosine diphosphateinduced blood platelet
aggregation in plateletrich plasma of rats.

blood pressure = assay: hypotensive effect in the allobarbital anesthetized dog; type: in vivo; conditions: for Hypotensive effect (E1 = 1): relative to PGE1 taken as 1.00, allobarbital anesthetised dog; for Hypotensive effect (E1 = 1) / duration of fall in blood pressure / fall in blood pressure: i.v.; for hypotensive side-effect: in words, in comparison with known compounds D, E, F and G; for duration of fall in blood pressure / fall in blood pressure: allobarbital anesthetized dog
Protocol: (ii) by intravenous administration to the allobarbital anesthetized dog, compound B produced falls in blood pressure of 13 and 31 mmHg lasting 17 and 37 minutes at the doses of 1 and 2 μg/kg animal body weight, respectively.
as §1
^(2) By intravenous administration to the allobarbital anesthetised

[2] = system: carbon tetrachloride-induced liver damage; assay: carbon tetrachloride-induced liver damage in rats (plasma GOT, GPT); type: in vivo, rat; conditions: for cytoprotective activity / cytoprotective activity compared with known compound H: in words; for cytoprotective activity: from the Table; for cytoprotective activity compared with known compound H: comparison with compound H; for inhibition in vivo at 0.2 mg/kg / inhibition in vivo at 0.02 mg/kg / inhibition in vivo at 0.1 mg/kg / inhibition in vivo at 0.05 mg/kg: po, CCl4, rat, vs controls; for inhibition in vivo at 0.2 mg/kg: 200 μg/kg p.o.; for inhibition in vivo at 0.02 mg/kg: 20 μg/kg p.o.; for inhibition in vivo at 0.1 mg/kg: 100 μg/kg p.o.; for inhibition in vivo at 0.05 mg/kg: 50 μg/kg p.o.
From the text: In the following Table, the pharmacological activities, i.e. carbon tetrachloride-induced cytodamage inhibition as an example of cytoprotective activity, and hypotensive and platelet aggregation inhibition activities as examples of side-effects, of known compounds are compared with those of compounds A, B and C of the invention.
^(1) The method used was that described in the specification of U.S.

mice = assay: acute toxicity in mice by oral administration; type: in vivo, mouse; conditions: 10 mg/kg animal body weight, 5 cases
From the text: Therefore, the compounds of the present invention may be considered to be sufficiently safe and suitable for medical use.

[3] = system: D(+)-galactosamine-induced liver damage; assay: D(+)-galactosamine-induced liver damage in rats; type: in vivo; conditions: D(+)-galactosamine 375 mg/kg i.p. twice, rat, 100 μg/kg oral five times, blood at 48 hrs, vs control
uterine contraction = uterine contraction in the pregnant female rat; type: in vivo; conditions: 20th day of gestation, i.v., doses of 50 and 20 μg/kg (compound A and compound B)
[4] = system: α-naphthylisothiocyanate-induced liver damage; assay: α-naphthylisothiocyanate-induced liver damage in rats; type: in vivo; conditions: rat, 100 μg/kg oral, vs controls
[5] = read-out: inhibition of plasma GOT (glutamic oxaloacetic transaminase)
[6] = read-out: inhibition of plasma GPT (glutamic pyruvic transaminase)

Platelet aggregation inhibition (E1 = 1) [1] | Structure (SMILES) | Hypotensive effect (E1 = 1) (blood pressure) | cytoprotective activity [2] | platelet aggregation inhibiting side-effect [1] | deaths in acute toxicity test (mice) | hypotensive side-effect (blood pressure) | cytoprotective activity compared with known compound H [2] | inhibition in vivo at 0.1 mg/kg [2, 5] | also measured
51.0 | CCCCC1CCC([C@H](O)/C=C/[C@H]2[C@H](O)CC(=O)[C@@H]2CC(=O)CCCCC(=O)OC)C1 (stereo partly shown) [F, 6Oxo-15-(3RS-butyl-1RS-cyclopentyl)-16,17,18,19,20-pentanor-PGE1 methyl ester, reference compound] | 12.6 | possess cytoprotective activity |  |  |  |  |  | 
48.4 | CCCC1CCC([C@H](O)/C=C/[C@H]2[C@H](O)CC(=O)[C@@H]2CC(=O)CCCCC(=O)O)C1 (stereo partly shown) [D, 6Oxo-15-(3RS-propyl-1RS-cyclopentyl)-16,17,18,19,20-pentanor-PGE1, reference compound] | 13 | possess cytoprotective activity |  |  |  |  |  | 
19.7 | CCCC1CCC([C@H](O)/C=C/[C@H]2[C@H](O)CC(=O)[C@@H]2CC(=O)CCCCC(=O)OC)CC1 (stereo partly shown) [G, 6Oxo-15-(4RS-propyl-1RS-cyclohexyl)-16,17,18,19,20-pentanor-PGE1 methyl ester, reference compound] | 6.2 | possess cytoprotective activity |  |  |  |  |  | 
58.6 | CCCC1CCC([C@H](O)/C=C/[C@H]2[C@H](O)CC(=O)[C@@H]2CC(=O)CCCCC(=O)OC)C1 (stereo partly shown) [E, 6Oxo-15-(3RS-propyl-1RS-cyclopentyl)-16,17,18,19,20-pentanor-PGE1 methyl ester, reference compound] | 25.7 | possess cytoprotective activity |  |  |  |  | 77% | 

More lines, now with the values behind:

Structure (SMILES) | Platelet aggregation inhibition (E1 = 1) [1] | Hypotensive effect (E1 = 1) (blood pressure) | cytoprotective activity [2] | platelet aggregation inhibiting side-effect [1] | deaths in acute toxicity test (mice) | hypotensive side-effect (blood pressure) | cytoprotective activity compared with known compound H [2] | inhibition in vivo at 0.1 mg/kg [2, 5] | also measured
O=C(CCCCCO)C[C@H]1C(=O)C[C@@H](O)[C@@H]1/C=C/[C@@H](O)C1CCCC1 [C, 2-decarboxy-2-hydroxymethyl-6-oxo-15-cyclopentyl-16,17,18,19,20-pentanor-PGE1] |  | 0.77 | possess cytoprotective activity | very weak side-effects | no deaths in 5 cases | very weak side-effects | superior in their cytoprotective activity to the known compound H |  | inhibition in vivo at 0.2 mg/kg [2, 5]: 7.9%; inhibition in vivo at 0.2 mg/kg [2, 6]: 29.9%
CCCCC1CC[C@H]([C@H](O)/C=C/[C@H]2[C@H](O)CC(=O)[C@@H]2CC(=O)CCCCCO)C1 (stereo partly drawn) [A, 2-decarboxy-2-hydroxymethyl-6-oxo-15-(3(RS)-butyl-1(S)-cyclopentyl)-16,17,18,19,20-pentanor-PGE1] | 0.05 | 1.2 | possess cytoprotective activity | very weak side-effects | no deaths in 5 cases | very weak side-effects | superior in their cytoprotective activity to the known compound H | 71.8% | inhibition of plasma GOT [3]: 20.4%; inhibition of plasma GPT [3]: 45.1%; inhibition of plasma bilirubin [3]: 36.2%; stimulation of uterine contraction (uterine contraction): stimulated uterine contraction; inhibition in vivo at 0.02 mg/kg [2, 5]: 56.6%; inhibition in vivo at 0.02 mg/kg [2, 6]: 58.8%; inhibition in vivo at 0.1 mg/kg [2, 6]: 53.6%
CCCC1CC[C@H]([C@H](O)/C=C/[C@H]2[C@H](O)CC(=O)[C@@H]2CC(=O)CCCCCO)C1 (stereo partly drawn) [B, 2-decarboxy-2-hydroxymethyl-6-oxo-15-(3(RS)-propyl-1(S)-cyclopentyl)-16,17,18,19,20-pentanor-PGE1] | 0.05 | 0.35 | possess cytoprotective activity | very weak side-effects | two deaths in 5 cases | very weak side-effects | superior in their cytoprotective activity to the known compound H |  | inhibition of plasma GOT [4]: 52.6%; inhibition of plasma GPT [4]: 62.5%; inhibition of plasma bilirubin [4]: 30.3%; inhibition of plasma GOT [3]: 40.0%; inhibition of plasma GPT [3]: 50.3%; inhibition of plasma bilirubin [3]: 44.2%; stimulation of uterine contraction (uterine contraction): stimulated uterine contraction; duration of fall in blood pressure (blood pressure; 1 μg/kg): 17 min; fall in blood pressure (blood pressure; 1 μg/kg): 13 mmHg; duration of fall in blood pressure (blood pressure; 2 μg/kg): 37 min; fall in blood pressure (blood pressure; 2 μg/kg): 31 mmHg; inhibition in vivo at 0.05 mg/kg [2, 5]: 29.6%; inhibition in vivo at 0.05 mg/kg [2, 6]: 21.5%
CCCCC[C@H](O)/C=C/[C@H]1[C@H](O)CC(=O)[C@@H]1CC(=O)CCCCCO [H, 2Decarboxy-2-hydroxymethyl-6-oxo-PGE1, reference compound] |  |  |  |  |  |  |  | 3.4% | inhibition in vivo at 0.1 mg/kg [2, 6]: -0.07%
